Assay results published in PubChem BioAssay (NCI).
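Values below derive from 48-hour exposures of cells grown in 96-well plates, with endpoints linearly interpolated between the two concentrations bracketing the appropriate inhibition level. GI50: concentration for 50% inhibition of growth. At the TGI there is no net growth.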

How the values were obtained:
Test in all cases: DTP human tumour cell line panel, 48 h
OVCAR-5 ovarian = test system: OVCAR-5 ovarian
SNB-19 CNS = test system: SNB-19 CNS
U251 CNS = test system: U251 CNS
OVCAR-4 ovarian = test system: OVCAR-4 ovarian
SNB-75 CNS = test system: SNB-75 CNS
MDA-MB-231 breast = test system: MDA-MB-231 breast
CAKI-1 renal = test system: CAKI-1 renal
SN12C renal = test system: SN12C renal
HCT-15 colon = test system: HCT-15 colon

COc1ccc2cc(CNCCCCCCNC(=O)Nc3cccc4ccccc34)ccc2c1
TGI (OVCAR-5 ovarian): > 100 µM | TGI (SNB-19 CNS): > 100 µM | TGI (U251 CNS): > 100 µM | TGI (OVCAR-4 ovarian): > 100 µM | TGI (SNB-75 CNS): > 100 µM | TGI (MDA-MB-231 breast): > 100 µM | TGI (CAKI-1 renal): > 100 µM | TGI (SN12C renal): > 100 µM | TGI (HCT-15 colon): > 100 µM

CC(NC(CC12CC3CC(CC(C3)C1)C2)C(N)=O)c1ccccc1 (stereo not drawn)
TGI (OVCAR-5 ovarian): 42.5 µM | TGI (SNB-19 CNS): > 100 µM | TGI (U251 CNS): 26.1 µM | TGI (OVCAR-4 ovarian): 98.5 µM | TGI (MDA-MB-231 breast): > 100 µM | TGI (CAKI-1 renal): 61.2 µM | TGI (HCT-15 colon): > 100 µM

N#CCCN(C(=O)Nc1ccc(NC(=O)N(CCC#N)c2ccccc2)cc1)c1ccccc1
TGI (OVCAR-5 ovarian): > 100 µM | TGI (SNB-19 CNS): > 100 µM | TGI (U251 CNS): > 100 µM | TGI (OVCAR-4 ovarian): > 100 µM | TGI (SNB-75 CNS): > 100 µM | TGI (MDA-MB-231 breast): > 100 µM | TGI (CAKI-1 renal): > 100 µM | TGI (SN12C renal): > 100 µM | TGI (HCT-15 colon): > 100 µM

CC(=O)CC(O)(C(F)(F)Cl)C(F)(Cl)Cl (stereo not drawn)
TGI (SNB-19 CNS): > 10 µM | TGI (U251 CNS): > 10 µM | TGI (OVCAR-4 ovarian): > 10 µM | TGI (SNB-75 CNS): > 10 µM | TGI (MDA-MB-231 breast): > 10 µM | TGI (CAKI-1 renal): > 10 µM | TGI (SN12C renal): > 10 µM | TGI (HCT-15 colon): > 10 µM

O=C(OC[C@H]1C[C@H]2C(=O)OCCC[C@H]2O1)c1ccccc1
TGI (OVCAR-5 ovarian): > 100 µM | TGI (SNB-19 CNS): > 100 µM | TGI (U251 CNS): > 100 µM | TGI (OVCAR-4 ovarian): > 100 µM | TGI (SNB-75 CNS): > 100 µM | TGI (MDA-MB-231 breast): > 100 µM | TGI (CAKI-1 renal): > 100 µM | TGI (SN12C renal): > 100 µM | TGI (HCT-15 colon): > 100 µM

NC1CC(=O)c2c(I)sc(I)c21 (stereo not drawn)
TGI (OVCAR-5 ovarian): 53 µM | TGI (SNB-19 CNS): 46.9 µM | TGI (U251 CNS): 51.1 µM | TGI (OVCAR-4 ovarian): 38.4 µM | TGI (SNB-75 CNS): 37.9 µM | TGI (MDA-MB-231 breast): 38.1 µM | TGI (CAKI-1 renal): 27.1 µM | TGI (SN12C renal): > 60.6 µM | TGI (HCT-15 colon): 45.8 µM

CCOC(=O)/C(C(=O)c1ccc[nH]1)=C1/CCCN1C
TGI (OVCAR-5 ovarian): > 100 µM | TGI (SNB-19 CNS): > 100 µM | TGI (U251 CNS): > 100 µM | TGI (OVCAR-4 ovarian): > 100 µM | TGI (SNB-75 CNS): > 100 µM | TGI (MDA-MB-231 breast): > 100 µM | TGI (CAKI-1 renal): > 100 µM | TGI (SN12C renal): > 100 µM | TGI (HCT-15 colon): > 100 µM

CCn1c(=O)c2nc(SC)sc2n(-c2ccccc2)c1=S
TGI (OVCAR-5 ovarian): > 100 µM | TGI (SNB-19 CNS): > 100 µM | TGI (U251 CNS): > 100 µM | TGI (OVCAR-4 ovarian): > 100 µM | TGI (SNB-75 CNS): > 100 µM | TGI (MDA-MB-231 breast): > 100 µM | TGI (SN12C renal): > 100 µM | TGI (HCT-15 colon): > 100 µM

CC1(C)OCC(/C=C\C(O)CC2(C)OCCO2)CO1 (stereo not drawn)
TGI (OVCAR-5 ovarian): > 100 µM | TGI (SNB-19 CNS): > 100 µM | TGI (U251 CNS): > 100 µM | TGI (OVCAR-4 ovarian): > 100 µM | TGI (SNB-75 CNS): > 100 µM | TGI (MDA-MB-231 breast): > 100 µM | TGI (CAKI-1 renal): > 100 µM | TGI (SN12C renal): > 100 µM | TGI (HCT-15 colon): > 100 µM

COC(=O)[C@@H]1CN(C(=O)Cc2ccccc2)C(=O)N1
TGI (OVCAR-5 ovarian): > 100 µM | TGI (SNB-19 CNS): > 100 µM | TGI (U251 CNS): > 100 µM | TGI (OVCAR-4 ovarian): > 100 µM | TGI (SNB-75 CNS): > 100 µM | TGI (MDA-MB-231 breast): > 100 µM | TGI (CAKI-1 renal): > 100 µM | TGI (SN12C renal): > 100 µM

C1CCC(CC2CCC(NC3=NCCO3)CC2)CC1 (stereo not drawn)
TGI (OVCAR-5 ovarian): 53.6 µM | TGI (SNB-19 CNS): 34.3 µM | TGI (U251 CNS): 33.3 µM | TGI (OVCAR-4 ovarian): 48.2 µM | TGI (SNB-75 CNS): 36.6 µM | TGI (MDA-MB-231 breast): 37.5 µM | TGI (CAKI-1 renal): 50.7 µM | TGI (SN12C renal): 42.5 µM | TGI (HCT-15 colon): 30.1 µM

CCOc1c2c(cc3c1C(=O)c1c(OC)cccc1C3=O)C=C(OC)CC2
TGI (OVCAR-5 ovarian): > 25 µM | TGI (SNB-19 CNS): > 25 µM | TGI (U251 CNS): > 25 µM | TGI (OVCAR-4 ovarian): > 25 µM | TGI (SNB-75 CNS): > 25 µM | TGI (MDA-MB-231 breast): > 25 µM | TGI (CAKI-1 renal): > 25 µM | TGI (SN12C renal): > 25 µM | TGI (HCT-15 colon): > 25 µM

O=C(O)COc1c(Cl)cc(Cl)c(C(c2c(Cl)cc(Cl)c(OCC(=O)O)c2Cl)C(Cl)(Cl)Cl)c1Cl
TGI (OVCAR-5 ovarian): 67.6 µM | TGI (SNB-19 CNS): > 100 µM | TGI (U251 CNS): 77.4 µM | TGI (OVCAR-4 ovarian): > 100 µM | TGI (SNB-75 CNS): 93.5 µM | TGI (MDA-MB-231 breast): 61.3 µM | TGI (CAKI-1 renal): > 100 µM | TGI (SN12C renal): > 100 µM | TGI (HCT-15 colon): 76 µM

C#C[C@]1(O)CC[C@H]2[C@@H]3CCC4=C/C(=N/OC(=O)c5cccc6cc7ccccc7nc56)CC[C@@H]4[C@H]3CC[C@@]21CC
TGI (OVCAR-5 ovarian): > 100 µM | TGI (SNB-19 CNS): > 100 µM | TGI (U251 CNS): > 100 µM | TGI (OVCAR-4 ovarian): > 100 µM | TGI (SNB-75 CNS): > 100 µM | TGI (MDA-MB-231 breast): > 100 µM | TGI (CAKI-1 renal): > 100 µM | TGI (SN12C renal): > 100 µM | TGI (HCT-15 colon): > 100 µM

Cc1csc(NCc2ccc(Cl)cc2)n1
TGI (OVCAR-5 ovarian): > 100 µM | TGI (SNB-19 CNS): > 100 µM | TGI (U251 CNS): > 100 µM | TGI (OVCAR-4 ovarian): > 100 µM | TGI (SNB-75 CNS): > 100 µM | TGI (MDA-MB-231 breast): > 100 µM | TGI (CAKI-1 renal): > 100 µM | TGI (SN12C renal): > 100 µM | TGI (HCT-15 colon): > 100 µM

O=C(Cn1c(=O)oc2ccccc21)N(c1ccccc1)c1ccccc1
TGI (OVCAR-5 ovarian): > 100 µM | TGI (SNB-19 CNS): > 100 µM | TGI (U251 CNS): > 100 µM | TGI (SNB-75 CNS): 71 µM | TGI (MDA-MB-231 breast): > 100 µM | TGI (CAKI-1 renal): > 100 µM | TGI (SN12C renal): > 100 µM | TGI (HCT-15 colon): > 100 µM

C=CCCCCCCCCCOC1C=CC(O)C(CO)O1 (stereo not drawn)
TGI (OVCAR-5 ovarian): > 100 µM | TGI (SNB-19 CNS): > 100 µM | TGI (U251 CNS): > 100 µM | TGI (OVCAR-4 ovarian): > 100 µM | TGI (SNB-75 CNS): > 100 µM | TGI (MDA-MB-231 breast): > 100 µM | TGI (CAKI-1 renal): > 100 µM | TGI (SN12C renal): > 100 µM | TGI (HCT-15 colon): > 100 µM

COc1ccc(/C=N/n2c(-c3ccccc3)n[nH]c2=O)c(OC)c1
TGI (OVCAR-5 ovarian): > 100 µM | TGI (SNB-19 CNS): 50.1 µM | TGI (U251 CNS): > 100 µM | TGI (OVCAR-4 ovarian): > 86.6 µM | TGI (SNB-75 CNS): > 73.2 µM | TGI (MDA-MB-231 breast): > 100 µM | TGI (CAKI-1 renal): > 100 µM | TGI (SN12C renal): > 100 µM | TGI (HCT-15 colon): > 100 µM

CCc1nnc2sc(-c3ccc(-c4ccccc4[N+](=O)[O-])o3)nn12
TGI (OVCAR-5 ovarian): > 100 µM | TGI (SNB-19 CNS): > 100 µM | TGI (U251 CNS): > 100 µM | TGI (OVCAR-4 ovarian): > 100 µM | TGI (SNB-75 CNS): > 100 µM | TGI (MDA-MB-231 breast): > 100 µM | TGI (CAKI-1 renal): > 100 µM | TGI (SN12C renal): > 100 µM | TGI (HCT-15 colon): > 100 µM

COc1cccc(C2c3cc4c(cc3OC(NNS(=O)(=O)c3ccc(C)cc3)C2C)OCO4)c1O (stereo not drawn)
TGI (OVCAR-5 ovarian): > 100 µM | TGI (SNB-19 CNS): > 100 µM | TGI (U251 CNS): > 100 µM | TGI (SNB-75 CNS): 40.7 µM | TGI (MDA-MB-231 breast): 49.2 µM | TGI (CAKI-1 renal): > 100 µM | TGI (SN12C renal): > 100 µM | TGI (HCT-15 colon): > 100 µM

CC(=O)N(C(=O)CC(=O)N1N=C(C)C(N=Nc2cccc([N+](=O)[O-])c2)C1=O)c1ccc(Cl)cc1 (stereo not drawn)
TGI (OVCAR-5 ovarian): > 10 µM | TGI (SNB-19 CNS): > 10 µM | TGI (U251 CNS): > 10 µM | TGI (OVCAR-4 ovarian): > 10 µM | TGI (SNB-75 CNS): > 10 µM | TGI (MDA-MB-231 breast): > 10 µM | TGI (CAKI-1 renal): > 10 µM | TGI (SN12C renal): > 10 µM | TGI (HCT-15 colon): > 10 µM

O=C(c1ccccc1)c1nn(-c2cccc(Cl)c2)c2nc3nc(-c4ccccc4)cc(=O)n3nc12
GI50 (SNB-19 CNS): > 25 µM | TGI (SNB-19 CNS): > 25 µM | GI50 (U251 CNS): > 25 µM | TGI (U251 CNS): > 25 µM | GI50 (OVCAR-4 ovarian): > 25 µM | TGI (OVCAR-4 ovarian): > 25 µM | GI50 (SNB-75 CNS): > 25 µM | TGI (SNB-75 CNS): > 25 µM | GI50 (MDA-MB-231 breast): > 25 µM | TGI (MDA-MB-231 breast): > 25 µM | GI50 (CAKI-1 renal): > 25 µM | TGI (CAKI-1 renal): > 25 µM | GI50 (SN12C renal): > 25 µM | TGI (SN12C renal): > 25 µM | GI50 (HCT-15 colon): > 25 µM | TGI (HCT-15 colon): > 25 µM
